Experimental data taken from patent US7928063B2, “Analogs of human growth hormone-releasing hormone, their preparation and use” (Instytut Farmaceutyczny, priority 2001, dated 2011).
Where two headings read alike, the source gives them in different places. Square brackets hold non-standard residues; d marks the D form. Peptide text beside a SMILES is read from it. * marks the point of attachment. Desaminotyrosyl = O=C(CCc1ccc(O)cc1)*; hArg = N=C(N)NCCCC[C@H](N)C(=O)O; Nle = CCCC[C@H](N)C(=O)O

Columns and labels:
GH release = assay: Effect of subcutaneous administration on GH release (plasma GH by RIA) in male rats; type: in vivo, rat; settings: for Relative potency compared with hGH-RH-(1-29)—NH2: at 15 minutes after the injection; for Plasma GH at various times after injection, 15 min. / Plasma GH at various times after injection, 30 min. / Plasma GH at various times after injection, 0 min.: male rats, mean ± SEM; for Plasma GH at various times after injection, 0 min.: sample 1 minute before injection; for Net GH concentration Δ(15 − 30): GH at 15 min. minus GH at 30 min.; for Net GH concentration Δ(15 − 0): GH at 15 min. minus GH before injection
trypsin = assay: Trypsin digestion test (enzymatic resistance, HPLC); type: in vitro ADME; settings: for Resistance to trypsin digestion (in words): after 30 minutes; for remaining at 0.5 h, 0.4 mg/ml / remaining at 1 h, 0.4 mg/ml: trypsin, pH 8.5, 37° C., read-out: % Unchanged compound; for remaining at 0.5 h, 0.4 mg/ml: digestion time 30 min.; for remaining at 1 h, 0.4 mg/ml: digestion time 60 min.
Method: The compounds prepared were also tested for enzymatic resistance in the trypsin digestion test. […] Subsequently, a trypsin solution was added (100 μl; 0.02 mg/ml; Serva, 36 U/mg). […] An aliquot (500 μl) was withdrawn and diluted with 0.5 M acetic acid (1 ml), then lyophilized. The material obtained was analyzed by HPLC, using a Knauer system with an Eurospher 100 C18 (4.6×250 mm, 5 micron) column. The following solvent systems were used: A, 0.1% TFA in water; […]

[1] = trypsin solution (Serva, 36 U/mg)

remaining at 0.5 h, 0.4 mg/ml (trypsin; [1]) | remaining at 1 h, 0.4 mg/ml (trypsin; [1]) | SMILES | Relative potency compared with hGH-RH-(1-29)—NH2 (GH release; dose 1.0 μg/kg vs 50 μg/kg of hGH-RH-(1-29)—NH2) | Relative potency compared with hGH-RH-(1-29)—NH2 (GH release; dose 3.0 μg/kg vs 150 μg/kg of hGH-RH-(1-29)—NH2) | Plasma GH at various times after injection, 15 min. (GH release; sc., dose 1 μg/kg) | Plasma GH at various times after injection, 30 min. (GH release; sc., dose 1 μg/kg) | Plasma GH at various times after injection, 0 min. (GH release; sc., dose 1 μg/kg) | Plasma GH at various times after injection, 15 min. (GH release; sc., dose 3 μg/kg) | Plasma GH at various times after injection, 30 min. (GH release; sc., dose 3 μg/kg) | Plasma GH at various times after injection, 0 min. (GH release; sc., dose 3 μg/kg) | Effect on GH release in rats, compared with saline control (in words) (GH release; rats, sc.) | Net GH concentration Δ(15 − 30) (GH release; rats, sc., dose 1 μg/kg) | Net GH concentration Δ(15 − 0) (GH release; rats, sc., dose 1 μg/kg) | Net GH concentration Δ(15 − 30) (GH release; rats, sc., dose 3 μg/kg) | Net GH concentration Δ(15 − 0) (GH release; rats, sc., dose 3 μg/kg) | Resistance to trypsin digestion (in words) (trypsin) | remaining at 0.5 h, 0.4 mg/ml (trypsin; isolated enzyme trypsin) | remaining at 1 h, 0.4 mg/ml (trypsin; isolated enzyme trypsin)
– | – | CCCC[C@H](NC(=O)[C@@H](NC(=O)[C@H](CC(=O)O)NC(=O)[C@H](CCC(N)=O)NC(=O)[C@H](CC(C)C)NC(=O)[C@H](CC(C)C)NC(=O)[C@H](CCCCNC(=N)N)NC(=O)[C@H](CCCCNC(=N)N)NC(=O)[C@H](C)NC(=O)[C@H](CO)NC(=O)[C@H](CC(C)C)NC(=O)[C@H](CCC(N)=O)NC(=O)[C@H](C)NC(=O)[C@H](CC(C)C)NC(=O)[C@@H](NC(=O)[C@H](CCCCNC(=N)N)NC(=O)[C@H](CCCCNC(=N)N)NC(=O)[C@H](Cc1ccc(O)cc1)NC(=O)[C@H](CO)NC(=O)[C@H](CC(N)=O)NC(=O)[C@@H](NC(=O)[C@H](Cc1ccccc1)NC(=O)[C@@H](NC(=O)[C@H](C)NC(=O)[C@H](CC(=O)O)NC(=O)[C@H](C)NC(=O)CCc1ccc(O)cc1)[C@@H](C)CC)[C@@H](C)O)C(C)C)[C@@H](C)CC)C(=O)N[C@@H](CC(=O)O)C(=O)N[C@@H](CCCCNC(=N)N)C(N)=O [Compound 1, Dat-Ala-Asp-Ala-Ile-Phe-Thr-Asn-Ser-Tyr^10-hArg-hArg-Val-Leu-Ala-Gln-Leu-Ser-Ala-hArg^20-hArg-Leu-Leu-Gln-Asp-Ile-Nle-Asp-hArg^29-NH2] (Desaminotyrosyl-ADAIFTNSY[hArg][hArg]VLAQLSA[hArg][hArg]LLQDI[Nle]D[hArg]-NH2) | 70 times higher | 38 times higher | 99.1 ± 16 ng/mL | 42.5 ± 9.2 ng/mL | 23.1 ± 2 ng/mL | 130 ± 16 ng/mL | 58.4 ± 8.9 ng/mL | 28.3 ± 4.1 ng/mL | strongest stimulating effect | 56.5 ± 14.7 ng/mL | 75.9 ± 16.0 ng/mL | 72.0 ± 12.6 ng/mL | 102 ± 12.6 ng/mL | unchanged | > 99% | > 99%
0% | 0% | CC[C@H](C)[C@H](NC(=O)[C@H](C)NC(=O)[C@H](CC(=O)O)NC(=O)[C@H](C)NC(=O)[C@@H](N)Cc1ccc(O)cc1)C(=O)N[C@@H](Cc1ccccc1)C(=O)N[C@H](C(=O)N[C@@H](CC(N)=O)C(=O)N[C@@H](CO)C(=O)N[C@@H](Cc1ccc(O)cc1)C(=O)N[C@@H](CCCNC(=N)N)C(=O)N[C@@H](CCCCN)C(=O)N[C@H](C(=O)N[C@@H](CC(C)C)C(=O)NCC(=O)N[C@@H](CCC(N)=O)C(=O)N[C@@H](CC(C)C)C(=O)N[C@@H](CO)C(=O)N[C@@H](C)C(=O)N[C@@H](CCCNC(=N)N)C(=O)N[C@@H](CCCCN)C(=O)N[C@@H](CC(C)C)C(=O)N[C@@H](CC(C)C)C(=O)N[C@@H](CCC(N)=O)C(=O)N[C@@H](CC(=O)O)C(=O)N[C@H](C(=O)N[C@@H](CCSC)C(=O)N[C@@H](CO)C(=O)N[C@@H](CCCNC(=N)N)C(N)=O)[C@@H](C)CC)C(C)C)[C@@H](C)O [hGH-RH(1-29)-NH2, reference compound] | – | – | – | – | – | – | – | – | – | – | – | – | – | complete digestion | – | –
